Measurements taken from ChEMBL document CHEMBL1201862, “PubChem BioAssay data set” (2004).
The source made the active and inactive calls.

Tests used:
BJ [1] = assay: cytotoxicity toward Ras-transformed BJeLR fibroblasts, dose response, cell-based, alamar blue fluorescence, cherrypicked samples (AID 2631); type: functional; details: Homo sapiens;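 further: confirmatory dose-response assay in RAS-dependent BJ fibroblasts engineered with TERT, LT and ST, with cytotoxicity read by fluorescence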
BJ [2] = assay: cytotoxicity toward BJ-TERT fibroblasts, dose response, cell-based, RAS-independent, luminescence (AID 1933); type: functional; details: Homo sapiens
[3] = cytotoxicity toward DRD oncogenic fibroblasts, dose response, cell-based, non-viral oncogenic, luminescence (AID 1934); type: functional; details: Homo sapiens
BJ [4] = assay: cytotoxicity toward BJ-TERT-LT-ST fibroblasts, dose response, cell-based, RAS-independent, luminescence (AID 1935); type: functional; details: Homo sapiens;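 further: BJ fibroblasts immortalized with TERT plus LT and ST oncogenes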
INS1 = assay: beta cell apoptosis inhibitors, cytokine rescue, dose response, luminescence, retest (AID 449756); type: functional, cell-based; details: Rattus norvegicus;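 further: cell death triggered by IL-1 beta plus TNF-alpha plus IFN-gamma mixture; protective hits raise ATP signal compared with cytokine alone wells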
[5] = Luminescence Cell-Based Dose Retest to Confirm Inhibitors of Cancer Stem Cells. [Related pubchem assays (depositor defined):AID2717, AID2721]; type: functional; details: Homo sapiens
BJ [6] = assay: cells; type: functional, cell-based; details: Homo sapiens
[7] = biological target: T1, Nuclear receptor subfamily 0 group B member 1 (Homo sapiens, UniProt P51843); assay: Luminescence-based cell-based high throughput dose response assay for inhibitors of the orphan nuclear receptor subfamily 0, group B, member 1 (DAX1; NR0B1). [Related pubchem assays (depositor defined):AID504766, AID504790]; type: functional
T1 sequence (P51843 whole entry): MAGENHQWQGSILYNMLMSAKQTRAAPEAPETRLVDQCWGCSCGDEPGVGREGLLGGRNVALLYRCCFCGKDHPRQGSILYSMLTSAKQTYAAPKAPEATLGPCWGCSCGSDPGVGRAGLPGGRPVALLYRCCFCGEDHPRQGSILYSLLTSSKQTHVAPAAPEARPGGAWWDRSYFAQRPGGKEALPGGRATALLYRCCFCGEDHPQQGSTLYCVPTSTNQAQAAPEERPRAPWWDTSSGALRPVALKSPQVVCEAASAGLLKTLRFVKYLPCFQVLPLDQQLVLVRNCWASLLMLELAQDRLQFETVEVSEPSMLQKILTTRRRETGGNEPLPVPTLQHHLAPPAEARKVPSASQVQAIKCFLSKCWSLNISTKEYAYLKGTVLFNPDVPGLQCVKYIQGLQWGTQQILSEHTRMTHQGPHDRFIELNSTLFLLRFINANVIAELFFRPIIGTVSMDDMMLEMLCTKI

HEK293 = assay: cells; type: functional, cell-based; details: Homo sapiens
fMet-Leu-Phe receptor = biological target: T2, fMet-Leu-Phe receptor (Homo sapiens, UniProt P21462); assay: FPR ligands, dose response (AID 519); type: functional
T2 sequence (P21462 whole entry): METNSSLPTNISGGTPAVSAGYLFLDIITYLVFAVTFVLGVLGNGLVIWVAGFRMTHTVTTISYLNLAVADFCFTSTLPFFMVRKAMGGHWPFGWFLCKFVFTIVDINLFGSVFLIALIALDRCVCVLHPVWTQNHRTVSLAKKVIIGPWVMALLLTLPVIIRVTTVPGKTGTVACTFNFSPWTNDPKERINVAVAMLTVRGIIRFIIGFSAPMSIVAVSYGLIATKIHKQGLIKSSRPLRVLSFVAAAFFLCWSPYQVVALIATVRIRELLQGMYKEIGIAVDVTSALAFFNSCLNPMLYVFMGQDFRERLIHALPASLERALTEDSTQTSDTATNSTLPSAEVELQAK

Nonstructural protein 1 = Nonstructural protein 1 (Influenza A virus, UniProt Q194T2); type: functional, Influenza A virus (A/California/07/2009(H1N1))
Sequence of Nonstructural protein 1 (Q194T2 whole entry): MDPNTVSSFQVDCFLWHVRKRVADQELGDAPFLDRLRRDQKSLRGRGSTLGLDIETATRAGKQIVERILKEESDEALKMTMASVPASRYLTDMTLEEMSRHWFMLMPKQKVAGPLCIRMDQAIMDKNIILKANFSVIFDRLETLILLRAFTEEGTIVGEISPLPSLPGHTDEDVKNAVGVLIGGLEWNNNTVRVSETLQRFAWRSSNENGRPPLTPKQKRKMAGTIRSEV

[8] = AlphaScreen signal interference compounds, dose response, artefact control for ARNT-TACC3 interaction inhibitor project, biochemical, luminescence, cherry-pick (AID 651705); type: functional;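 further: AlphaScreen bead proximity signal that flags compounds interfering with the detection technology; potency reflects signal decrease which marks the compound as an assay artifact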
cells = type: functional
Cysteine protease ATG4B = biological target: T3, Cysteine protease ATG4B (Homo sapiens, UniProt Q9Y4P1); type: functional;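 further: Fluorescence-based dose-response confirmation assay measuring inhibition of ATG4B activity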
T3 sequence (Q9Y4P1 whole entry): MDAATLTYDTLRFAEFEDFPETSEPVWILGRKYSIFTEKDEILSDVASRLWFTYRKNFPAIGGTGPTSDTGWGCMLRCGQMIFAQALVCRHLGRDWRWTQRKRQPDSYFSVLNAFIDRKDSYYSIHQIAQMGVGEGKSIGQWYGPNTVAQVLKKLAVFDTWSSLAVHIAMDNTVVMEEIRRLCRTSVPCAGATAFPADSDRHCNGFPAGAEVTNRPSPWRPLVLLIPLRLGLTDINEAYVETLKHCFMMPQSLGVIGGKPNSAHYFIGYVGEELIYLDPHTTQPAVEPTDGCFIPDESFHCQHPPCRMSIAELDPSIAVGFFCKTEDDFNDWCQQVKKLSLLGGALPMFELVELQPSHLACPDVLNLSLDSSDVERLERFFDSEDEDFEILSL

Phospholipase A2 = Phospholipase A2 (Homo sapiens, UniProt P04054); type: functional;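 further: confirmatory dose-response counterscreen on phospholipase A2, testing hits that came from an ultra-high-throughput screen for ATG4B inhibitors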
Sequence of Phospholipase A2 (P04054 whole entry): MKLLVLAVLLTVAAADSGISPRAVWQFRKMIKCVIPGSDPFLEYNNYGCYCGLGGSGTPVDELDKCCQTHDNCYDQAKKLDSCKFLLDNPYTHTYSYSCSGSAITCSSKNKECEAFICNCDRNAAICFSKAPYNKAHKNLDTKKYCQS

Estrogen receptor = biological target: T4, Estrogen receptor (Homo sapiens, UniProt P03372);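 further: potency for inhibiting coactivator peptide recruitment to the receptor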
T4 sequence (P03372 whole entry): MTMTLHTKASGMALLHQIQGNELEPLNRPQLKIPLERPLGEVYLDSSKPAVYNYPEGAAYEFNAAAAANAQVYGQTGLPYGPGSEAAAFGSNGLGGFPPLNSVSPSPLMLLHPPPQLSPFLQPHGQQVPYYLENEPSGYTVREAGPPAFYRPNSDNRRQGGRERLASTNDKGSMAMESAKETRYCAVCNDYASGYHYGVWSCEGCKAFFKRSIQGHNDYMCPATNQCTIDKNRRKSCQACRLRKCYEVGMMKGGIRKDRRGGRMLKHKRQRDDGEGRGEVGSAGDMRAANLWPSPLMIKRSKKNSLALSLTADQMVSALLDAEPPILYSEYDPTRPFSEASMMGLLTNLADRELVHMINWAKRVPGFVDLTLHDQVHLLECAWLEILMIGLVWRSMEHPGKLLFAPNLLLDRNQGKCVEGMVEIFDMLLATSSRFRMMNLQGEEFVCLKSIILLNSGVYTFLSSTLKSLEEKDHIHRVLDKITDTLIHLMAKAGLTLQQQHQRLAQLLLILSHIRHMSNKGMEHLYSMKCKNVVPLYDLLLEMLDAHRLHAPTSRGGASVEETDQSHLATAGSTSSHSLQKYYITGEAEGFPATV

Fatty acid synthase [9] = biological target: T5, Fatty acid synthase (Homo sapiens, UniProt P49327); assay: FAS thioesterase domain inhibitors, dose response, biochemical, kinetic fluorescence intensity (AID 624326); type: functional;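 further: rate of fluorescence rise from hydrolysis of a fluorogenic O-methyl fluorescein ester substrate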
T5 sequence (P49327 whole entry, the tested form may be a part): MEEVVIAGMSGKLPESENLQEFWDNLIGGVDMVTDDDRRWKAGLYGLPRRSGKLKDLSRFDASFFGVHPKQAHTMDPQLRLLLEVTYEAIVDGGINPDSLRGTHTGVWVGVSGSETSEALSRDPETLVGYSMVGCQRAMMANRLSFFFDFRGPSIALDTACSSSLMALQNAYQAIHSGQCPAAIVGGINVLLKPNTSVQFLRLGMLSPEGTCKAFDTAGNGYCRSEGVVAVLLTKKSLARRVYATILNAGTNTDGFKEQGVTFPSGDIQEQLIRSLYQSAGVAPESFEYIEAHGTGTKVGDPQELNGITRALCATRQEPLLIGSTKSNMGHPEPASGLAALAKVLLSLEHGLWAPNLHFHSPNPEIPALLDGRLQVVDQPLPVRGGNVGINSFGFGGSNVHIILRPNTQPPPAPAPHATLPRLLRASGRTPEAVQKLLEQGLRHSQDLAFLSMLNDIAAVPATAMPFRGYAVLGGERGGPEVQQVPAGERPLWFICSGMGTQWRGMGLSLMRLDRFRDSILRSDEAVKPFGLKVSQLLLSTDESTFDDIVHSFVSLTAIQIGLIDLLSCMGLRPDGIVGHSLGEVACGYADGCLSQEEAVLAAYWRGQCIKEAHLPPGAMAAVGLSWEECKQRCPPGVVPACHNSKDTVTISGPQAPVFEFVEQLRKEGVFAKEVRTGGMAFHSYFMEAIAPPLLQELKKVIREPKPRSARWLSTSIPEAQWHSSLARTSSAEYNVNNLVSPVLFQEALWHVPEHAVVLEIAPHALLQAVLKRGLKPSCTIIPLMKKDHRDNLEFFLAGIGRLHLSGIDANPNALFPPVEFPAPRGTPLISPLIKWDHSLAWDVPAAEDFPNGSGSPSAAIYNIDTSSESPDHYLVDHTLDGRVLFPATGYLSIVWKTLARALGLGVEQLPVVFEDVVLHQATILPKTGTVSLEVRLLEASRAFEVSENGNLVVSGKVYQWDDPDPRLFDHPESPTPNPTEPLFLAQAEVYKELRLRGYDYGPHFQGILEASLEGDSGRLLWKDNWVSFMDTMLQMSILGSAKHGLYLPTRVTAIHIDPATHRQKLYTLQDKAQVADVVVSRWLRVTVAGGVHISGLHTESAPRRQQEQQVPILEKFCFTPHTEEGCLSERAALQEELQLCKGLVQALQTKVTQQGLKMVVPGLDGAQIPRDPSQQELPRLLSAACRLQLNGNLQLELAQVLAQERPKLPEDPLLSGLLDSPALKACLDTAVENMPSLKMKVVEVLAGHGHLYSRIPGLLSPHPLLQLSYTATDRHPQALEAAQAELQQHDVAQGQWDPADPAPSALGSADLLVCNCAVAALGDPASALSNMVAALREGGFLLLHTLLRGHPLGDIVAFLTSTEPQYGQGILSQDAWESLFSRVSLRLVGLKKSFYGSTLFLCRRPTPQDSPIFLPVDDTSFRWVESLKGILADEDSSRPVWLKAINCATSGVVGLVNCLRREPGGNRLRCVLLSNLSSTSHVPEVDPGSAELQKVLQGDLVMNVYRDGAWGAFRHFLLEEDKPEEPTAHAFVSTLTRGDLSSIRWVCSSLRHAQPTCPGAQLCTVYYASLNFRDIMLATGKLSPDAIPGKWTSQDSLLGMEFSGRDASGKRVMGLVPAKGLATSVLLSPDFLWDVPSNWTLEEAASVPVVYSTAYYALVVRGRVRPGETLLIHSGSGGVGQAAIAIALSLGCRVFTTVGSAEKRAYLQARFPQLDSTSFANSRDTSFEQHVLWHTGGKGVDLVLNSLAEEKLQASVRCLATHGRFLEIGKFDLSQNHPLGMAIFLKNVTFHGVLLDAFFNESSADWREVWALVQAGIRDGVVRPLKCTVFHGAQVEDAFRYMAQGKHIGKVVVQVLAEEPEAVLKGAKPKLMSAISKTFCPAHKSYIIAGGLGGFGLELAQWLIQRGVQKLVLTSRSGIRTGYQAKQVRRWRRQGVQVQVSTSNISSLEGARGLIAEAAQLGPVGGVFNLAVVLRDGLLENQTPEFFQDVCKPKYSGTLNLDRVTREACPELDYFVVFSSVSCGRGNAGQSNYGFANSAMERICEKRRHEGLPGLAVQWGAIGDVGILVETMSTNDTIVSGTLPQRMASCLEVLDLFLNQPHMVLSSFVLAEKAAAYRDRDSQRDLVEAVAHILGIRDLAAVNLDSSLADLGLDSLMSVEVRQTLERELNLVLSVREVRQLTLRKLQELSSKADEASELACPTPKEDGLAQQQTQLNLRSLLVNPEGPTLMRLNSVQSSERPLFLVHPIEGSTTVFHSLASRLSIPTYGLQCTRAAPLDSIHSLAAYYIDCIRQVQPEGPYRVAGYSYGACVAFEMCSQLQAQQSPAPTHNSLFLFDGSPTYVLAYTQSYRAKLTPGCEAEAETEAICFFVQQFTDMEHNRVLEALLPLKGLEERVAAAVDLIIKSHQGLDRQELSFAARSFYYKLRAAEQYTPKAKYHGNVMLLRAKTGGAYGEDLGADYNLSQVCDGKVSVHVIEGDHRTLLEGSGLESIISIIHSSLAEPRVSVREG

Fatty acid synthase [10] = biological target: T5, Fatty acid synthase; assay: FAS thioesterase domain inhibitors, dose response, biochemical, endpoint fluorescence intensity, uHTS hits (AID 624327); type: functional;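 further: fluorescence from hydrolysis of an O-methyl fluorescein acyl ester substrate by the enzyme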
[11] = biological target: T6, Low molecular weight phosphotyrosine protein phosphatase (Homo sapiens, UniProt P24666); type: functional; details: read-out: IC50_Mean;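 further: Dose-response confirmation assay measuring inhibition of LMPTP enzyme activity by fluorescence intensity read-out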
T6 sequence (P24666 whole entry): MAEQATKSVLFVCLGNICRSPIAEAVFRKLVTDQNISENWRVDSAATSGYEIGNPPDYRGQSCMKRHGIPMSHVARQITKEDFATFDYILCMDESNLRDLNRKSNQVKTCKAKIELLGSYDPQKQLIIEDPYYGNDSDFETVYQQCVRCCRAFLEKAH

[12] = microbe, parasite or virus in culture; type: functional; details: Mycobacterium tuberculosis
[13] = miR-122 activators in hepatoma reporter cells, dose response, cell-based, Huh7 psiCHECK-miR122, Renilla luciferase, cherry-picked (AID 651956); type: functional;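 further: huh7 hepatoma cells stably carrying a psiCHECK-2 miR-122 sensor plasmid; renilla luciferase signal reporting endogenous miR-122 activity after 48 h compound exposure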
[14] = HEK293T cytotoxicity, dose response, cytotoxicity control for miR-122 modulator project, cell-based, inhibitor set, cherry-pick, set 2 (AID 720697); type: functional
Beta-galactosidase = Beta-galactosidase (Escherichia coli, UniProt Q8VNN2); assay: Dose response counterscreen for EBI2 assay utilizing the enzyme, b-galactosidase.; type: functional
Sequence of Beta-galactosidase (Q8VNN2 whole entry): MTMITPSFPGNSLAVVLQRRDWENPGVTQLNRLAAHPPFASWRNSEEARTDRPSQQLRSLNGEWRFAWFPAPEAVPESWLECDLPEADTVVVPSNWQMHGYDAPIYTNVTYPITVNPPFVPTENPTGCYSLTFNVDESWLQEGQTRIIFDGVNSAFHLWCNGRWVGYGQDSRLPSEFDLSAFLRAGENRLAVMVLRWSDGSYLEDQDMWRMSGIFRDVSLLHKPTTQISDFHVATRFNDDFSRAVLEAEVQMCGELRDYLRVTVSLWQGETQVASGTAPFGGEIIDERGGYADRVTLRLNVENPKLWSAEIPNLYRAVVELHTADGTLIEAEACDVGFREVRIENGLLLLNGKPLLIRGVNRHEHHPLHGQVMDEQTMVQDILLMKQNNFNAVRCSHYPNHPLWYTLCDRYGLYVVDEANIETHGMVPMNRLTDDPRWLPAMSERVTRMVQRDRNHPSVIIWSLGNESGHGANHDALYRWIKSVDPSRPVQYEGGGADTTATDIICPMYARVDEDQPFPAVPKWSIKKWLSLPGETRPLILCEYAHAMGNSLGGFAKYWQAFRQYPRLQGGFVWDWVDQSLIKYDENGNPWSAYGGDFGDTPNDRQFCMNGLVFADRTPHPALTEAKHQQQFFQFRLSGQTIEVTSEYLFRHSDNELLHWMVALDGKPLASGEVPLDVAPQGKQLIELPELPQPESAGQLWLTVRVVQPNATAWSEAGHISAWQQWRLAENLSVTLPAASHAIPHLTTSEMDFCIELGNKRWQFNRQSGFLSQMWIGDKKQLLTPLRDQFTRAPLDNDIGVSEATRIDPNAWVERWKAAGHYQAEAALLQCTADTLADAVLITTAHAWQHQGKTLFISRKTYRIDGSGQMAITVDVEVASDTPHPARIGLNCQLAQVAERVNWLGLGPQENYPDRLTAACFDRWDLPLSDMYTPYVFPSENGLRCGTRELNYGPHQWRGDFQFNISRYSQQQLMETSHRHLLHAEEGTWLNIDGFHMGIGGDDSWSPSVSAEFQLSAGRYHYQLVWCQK

COc1ccccc1/C=C1\SC(=O)N(CCC(=O)NCCCn2ccnc2)C1=O
EC50 (BJ [1]): > 133 µM (inactive)
EC50 (BJ [2]): > 150 µM (not active)
EC50 [3]: > 150 µM (not active)
EC50 (BJ [4]): > 150 µM (not active)
AC50 (INS1): 5.64 µM (active)
AC50 [5]: 13.5 µM (active)
EC50 (BJ [6]): > 150 µM (inconclusive)

Cc1cc(C)nc(NC(=O)CSc2nn(-c3ccccc3)c(=S)s2)n1
IC50 [7]: > 67.5 µM (inactive)
IC50 (HEK293): > 67.5 µM (inactive)

CC1CCN(c2nc(-c3ccccc3)c(C#N)c(=O)[nH]2)CC1
Ki (fMet-Leu-Phe receptor): > 66.7 µM (inactive)

O=C(CSc1nnc(-c2cccnc2)o1)Nc1nccs1
IC50 (Nonstructural protein 1): 10.9 µM (active)
AC50 [8]: 129 µM (active)

Clc1ccc(-c2ccc(CNCc3ccccn3)o2)cc1
IC50 (cells): 3.21 µM (active)
AC50 [8]: 95.9 µM (active)

Cc1cc(C(=O)N2CCCC(C(=O)c3ccc(Oc4ccccc4)cc3)C2)[nH]n1 (stereo not given)
IC50 (Cysteine protease ATG4B): 28.3 µM (inactive)
IC50 (Phospholipase A2): 11.9 µM (active)

O=C(NCc1ccco1)c1cc2ccccc2c(=O)o1
IC50 (Estrogen receptor): 30.2 µM (not active)

COc1ccc2c(c1)C(c1ccc(C)o1)=NNC(c1ccccc1)=N2
IC50 (Cysteine protease ATG4B): 12.9 µM (active)
IC50 (Phospholipase A2): 8.91 µM (active)

O=S(=O)(c1ccccc1)c1nnn2c1nc(NC1CCN(Cc3ccccc3)CC1)c1ccccc12
IC50 (Fatty acid synthase [9]): 0.793 µM (active)
IC50 (Fatty acid synthase [10]): 1.03 µM (active)
IC50 [11]: 11.5 µM (active)

CC(=O)Nc1cccc(C(=O)OCC(=O)Nc2nnc(-c3ccccc3)o2)c1
AC50 [8]: 96.8 µM (active)

O=C(NCc1ccc2c(c1)OCO2)c1c(O)nc2sccn2c1=O
IC50 [11]: 80 µM (inactive)
CC50 [12]: > 40 µM (active)

CCCc1ccc(S(=O)(=O)NCCc2ccncc2)cc1
AC50 [13]: 34.1 µM (active)
AC50 [14]: 8.02 µM (active)

Clc1ccc(OCCn2ccnc2)c(Cl)c1
IC50 [7]: > 67.5 µM (inactive)
IC50 (HEK293): > 67.5 µM (inactive)

O=C(/C=C/c1ccccc1)N1CCC(Cc2ccccc2)CC1
IC50 (Beta-galactosidase): > 80 µM (inactive)
